No end group written: not given here.
What was measured:
[1] = tested on: Zingiber officinale-originating enzyme; assay: Hydrogen peroxide production, DA-64 color development; format: biochemical; conditions: lmM substrate, enzyme 0.3 u/mL, 30 minutes at 50° C., pH 8.0, DA-64/POD
Protocol: To a 50 mM phosphate buffer (pH 8.0) containing 0.5 mM DA-64 (product of Wako Pure Chemical Industries, Ltd.), 200-u/mL POD, 0.1% sodium azide, and lmM fructosyl valine or fructosyl peptide (SEQ ID NOs: 1 to 5) (all being final concentrations), a Zingiber officinale-originating enzyme solution was added in an amount of 0.3 u/mL (final concentration), and the mixture was treated for 30 minutes at 50° C. Absorbance at 700 nm was measured by employment of purified water as a control. Color development of DA-64 was observed (Table 1). Thus, hydrogen peroxide was confirmed to be produced.

[2] = tested on: enzyme originating from a plant belonging to the family Zingiberaceae; assay: Enzyme activity on substrates by glucosone production (substrate specificity, Km); format: biochemical, Zingiber officinale; conditions: Lineweaver-Burk's plots; glucosone production at 37° C., pH 8.0
Protocol: The method for determining activity of the enzyme of the present invention is exemplified by a method in which the enzyme is reacted with a substrate fructosyl peptide, to thereby produce non-fructosyl peptide, glucosone, and hydrogen peroxide, and the amount of any one of these compounds produced through the enzyme reaction is measured. Next will be described an example method of measuring the amount of glucosone produced. Hereinafter, unless otherwise specified, the substrate employed for determining activity of the enzyme of the present invention is fructosyl valyl histidine. One unit (U) of the titer of the enzyme is defined as the amount of enzyme which produces 1 μmol glucosone in one minute as measured when the substrate is fructosyl valyl histidine. […]
To the above reaction mixture, a mixture which has been prepared in advance by mixing 200 mM acetate buffer (pH 6.0) (750 μL), 4000-u/mL glucose oxidase (Toyobo Co., Ltd.) (450 μL), 0.15% 4-aminoantipyrine (300 μL), 0.3% TOOS (Dojindo Laboratories) (300 μL), 500-u/mL peroxidase (Toyobo Co., Ltd.: Type III) (300 μL), and 1% sodium azide (300 μL) is added, followed by heating for 10 minutes at 37° C. Thereafter, absorbance is measured at 550 nm. […] Thus, the amount (in micromoles) of glucosone produced in one minute is calculated, and the obtained value is used as the activity unit of the enzyme solution. […]

[3] = tested on: enzyme originating from Zingiber officinale; assay: Measurement of fructosyl peptide through glucosone, absorbance at 550 nm; format: biochemical; conditions: 0 to 40 μM substrate, enzyme 1.6 u/mL (30 μL), 16 hours at 37° C.
Protocol: 200 mM Phosphate buffer (pH 8.0) (150 μL), purified water (360 μL), and each of aqueous fructosyl valyl histidine solutions (60 μL) having different concentrations were mixed together so that the final fructosyl valyl histidine concentrations after reaction fell between 0 and 40 μM. The reaction was mixed with a solution of the enzyme originating from Zingiber officinale (1.6 u/mL) (30 μL), and the resultant mixture was allowed to react for 16 hours at 37° C. Subsequently, a mixture which had been prepared in advance by mixing 200 mM acetate buffer (pH 6.0) (750 μL), 4000-u/mL glucose oxidase (Toyobo Co., Ltd.) (450 μL), 0.15% 4-aminoantipyrine (300 μL), 0.3% TOOS (Dojindo Laboratories) (300 μL), 500-u/mL peroxidase (Toyobo Co., Ltd.: Type III) (300 μL), and 1% sodium azide (300 μL) was added to the reaction mixture, and the resultant mixture was treated for 10 minutes at 37° C., followed by measuring absorbance at 550 nm (FIG. 7).

[4] = tested on: Zingiberaceae-plant-origin crude enzyme solution; assay: Defructosylation of fructosyl peptide, analysed by capillary electrophoresis; format: biochemical, Zingiber officinale; conditions: reaction mixture 1, 16 hours at 37° C., pH 8.0, control peak area 32 mABU×sec
Protocol: (i) A 100 mM phosphate buffer (pH 8.0) (100 μL), a 500 μM aqueous solution (40 μL) of the N-terminal-valine fructosylated peptide having an amino acid sequence represented by SEQ ID NO: 2 (f-VHL: products of Bioquest), purified water (20 μL), and the Zingiberaceae-plant-origin crude enzyme solution (40 μL) prepared in Example 1 were mixed together, and the mixture was caused to react for 16 hours at 37° C. The reaction mixture was subjected to ultrafiltration (molecular weight: 10,000), and the filtrate was collected (reaction mixture 1). The reaction mixture 1 was analyzed through use of a capillary electrophoresis apparatus CAPI-3200 (product of Otsuka Electronics Co., Ltd) (electrophoresis buffer: 150 mM phosphate buffer (pH 2.0), voltage: 15 kV, detection wavelength: 210 nm) in terms of peak position and peak area.
As a control, purified water was added instead of the crude enzyme solution, and the resultant mixture was allowed to react under similar conditions, to thereby prepare a filtrate (control solution 1). The analysis results obtained from the control solution 1 were compared with those of the reaction mixture 1.
The fructosyl peptide employed in the enzyme reaction or control test had been mixed with corresponding non-fructosylated peptide. The presence or absence of the enzyme activity was determined through comparison of the two peaks.

| Absorbance at 700 nm [1] | peak attributed to f-VHL (capillary electrophoresis) [4] | Compound | Km [2] | absorbance at 550 nm against substrate concentration [3] |
| --- | --- | --- | --- | --- |
| 570 mAbs | does not exist | f-VHL: N-terminal-valine fructosylated peptide having an amino acid sequence represented by SEQ ID NO: 2; fructosyl tripeptide (fructosyl-Val-His-Leu) | – | – |
| 558 mAbs | – | f-VHLT: N-terminal-valine fructosylated tetrapeptide substrate (SEQ ID NO: 3) (fructosyl-VHLT) | – | – |
| 198 mAbs | – | f-VHLTP: N-terminal-valine fructosylated pentapeptide substrate (SEQ ID NO: 4) (fructosyl-VHLTP) | – | – |
| 223 mAbs | – | f-VHLTPE: N-terminal-valine fructosylated hexapeptide substrate (SEQ ID NO: 5) (fructosyl-VHLTPE) | – | – |

| Compound | Absorbance at 700 nm [1] | peak attributed to f-VHL (capillary electrophoresis) [4] | Km [2] | absorbance at 550 nm against substrate concentration [3] |
| --- | --- | --- | --- | --- |
| CC(C)[C@H](NC1(CO)O[C@H](CO)[C@@H](O)[C@@H]1O)C(=O)N[C@@H](Cc1c[nH]cn1)C(=O)O (some centres unmarked) [f-VH, fructosyl valyl histidine] | 735 mAbs | – | 1200 µM | increase in accordance with the increase in concentration |
